Assay results from paper PMC5748281 (ACS Omega, 2017).
“Also recorded” adds a separate entry of the source. Read-outs that look alike come from different tables or passages of the source.

Key:
yeast cells = details: cited from earlier work
S. cerevisiae [1] = assay: DEL; details: IC80 concentration; for Induction of deletion, fold increase over untreated control, Obsd: 17 h, DEL(URA3) strain, average of three samples; for deletion formation / genotoxicity in words: DEL assay
S. cerevisiae [2] = assay: Growth inhibition assay, 96-well microplate format; assay type: cell-based, Saccharomyces cerevisiae; details: for IC80: read-out: log 1/IC80 Obsd (converted)
yeast = details: aniline metabolites in yeast; cited from earlier work
Water solubility = assay type: physicochemical; details: water / assay medium
[3] = test system: DNA repair null mutant yeast strains; assay type: cell-based, Saccharomyces cerevisiae
[4] = Saccharomyces cerevisiae, 17 h, read-out: log 1/IC50 Obsd (converted)

Row | SMILES | log 1/ICFR50 Obsd (yeast cells) | IC50 (S. cerevisiae [2]; [4]) [µM] | IC80 (S. cerevisiae [2]; Saccharomyces cerevisiae, 17 h) [mM] | other results
1 | Oc1c(Cl)c(Cl)c(Cl)c(Cl)c1Cl [2,3,4,5,6-Cl5] | 3.96 | – | – | –
2 | Oc1c(F)c(F)c(F)c(F)c1F [2,3,4,5,6-F5] | 2.05 | – | – | –
3 | Oc1cc(Cl)c(Cl)c(Cl)c1Cl [2,3,4,5-Cl4] | 3.92 | – | – | –
4 | Oc1cccc(Cl)c1Cl [2,3-Cl2] | 2.68 | – | – | –
5 | Oc1cc(Cl)c(Cl)cc1Cl [2,4,5-Cl3] | 3.26 | – | – | –
6 | Oc1c(I)cc(I)cc1I [2,4,6-(I)3] | 4.3 | – | – | –
7 | Oc1c(Cl)cc(Cl)cc1Cl [2,4,6-Cl3] | 3.28 | – | – | –
8 | Oc1ccc(Cl)cc1Cl [2,4-Cl2] | 2.77 | – | – | –
9 | Oc1c(Cl)cccc1Cl [2,6-Cl2] | 2.52 | – | – | –
10 | Oc1ccccc1Br [2-Br] | 2.08 | – | – | –
11 | COc1ccc(O)c(C(C)(C)C)c1 [2-C(CH3)3,4-OCH3, 2-tert-butyl-4-methoxy-phenol] | – | 288 | 0.407 | Induction of deletion, fold increase over untreated control, Obsd (S. cerevisiae [1]): 2.57 fold; Induction of deletion, fold increase over untreated control, Obsd (S. cerevisiae [1]; listed as BHA-2): greater than 2 fold
12 | Cc1ccc(O)c(N)c1 [2-NH2,4-CH3] | 1.07 | – | – | –
13 | Oc1ccccc1O [2-OH (catechol), catechol] | – | 2240 | 3.39 | Induction of deletion, fold increase over untreated control, Obsd (S. cerevisiae [1]): 2.26 fold
14 | Oc1cc(Cl)c(Cl)c(Cl)c1 [3,4,5-Cl3] | 3.3 | – | – | –
15 | CC(C)(C)c1cc(O)cc(C(C)(C)C)c1 [3,5-(C(CH3)3)2] | 3.96 | – | – | –
16 | COc1cc(O)cc(OC)c1 [3,5-(OCH3)2] | 1.54 | – | – | –
17 | COc1ccc(O)cc1C(C)(C)C [3-C(CH3)3,4-OCH3, 3-tert-butyl-4-methoxy-phenol] | – | 380 | 0.49 | deletion formation / genotoxicity in words (S. cerevisiae [1]; listed as BHA-3): do not increase the deletion formation; Induction of deletion, fold increase over untreated control, Obsd (S. cerevisiae [1]): 1.17 fold
18 | Oc1cccc(C(F)(F)F)c1 [3-CF3] | 2.31 | – | – | –
19 | CCCCCc1ccc(O)cc1 [4-(CH2)4CH3, 4-pentylphenol] | – | 89.1 | 0.11 | –
20 | CCCCCCCCCc1ccc(O)cc1 [4-(CH2)8CH3, 4-nonylphenol] | – | 20 | 0.0398 | Induction of deletion, fold increase over untreated control, Obsd (S. cerevisiae [1]): 2.58 fold; IC50 (S. cerevisiae [2]; Saccharomyces cerevisiae, 17 h): 20 µM

Row | SMILES | log 1/ICFR50 Obsd (yeast cells) | IC50 (S. cerevisiae [2]; [4]) [µM] | IC80 (S. cerevisiae [2]; Saccharomyces cerevisiae, 17 h) [mM] | other results
21 | Oc1ccc(Br)cc1 [4-Br, 4-bromophenol] | 2.4 | 832 | 1.1 | –
22 | Cc1ccc(O)c([N+](=O)[O-])c1 [4-CH3,2-NO2] | 2.1 | – | – | –
23 | N#Cc1ccc(O)cc1 [4-CN, 4-cyanophenol] | – | 3020 | 5.5 | Induction of deletion, fold increase over untreated control, Obsd (S. cerevisiae [1]): 1.25 fold
24 | O=C(O)c1ccc(O)cc1 [4-COOH] | 1.75 | – | – | –
25 | Cc1cc(O)cc(C)c1Cl [4-Cl, 3,5-(CH3)2] | 2.96 | – | – | –
26 | Oc1ccc(Cl)cc1 [4-Cl, 4-chlorophenol] | 2.07 | 1350 | 1.66 | Induction of deletion, fold increase over untreated control, Obsd (S. cerevisiae [1]): 1.85 fold
27 | Oc1ccc(F)cc1 [4-F, 4-fluorophenol] | – | 4790 | 6.17 | Induction of deletion, fold increase over untreated control, Obsd (S. cerevisiae [1]): 2.03 fold
28 | Oc1ccccc1 [4-H, phenol] | 1.17 | 11000 | 14.1 | Induction of deletion, fold increase over untreated control, Obsd (S. cerevisiae [1]): 2.27 fold
29 | Oc1ccc(I)cc1 [4-I] | 2.4 | – | – | –
30 | O=[N+]([O-])c1ccc(O)cc1 [4-NO2, 4-nitrophenol] | 2.85 | 603 | 0.813 | –
31 | CCOc1ccc(O)cc1 [4-OC2H5, 4-ethoxyphenol] | – | 6760 | 7.94 | –
32 | CCCOc1ccc(O)cc1 [4-OC3H7, 4-propoxyphenol] | – | 1820 | 2.24 | –
33 | CCCCOc1ccc(O)cc1 [4-OC4H9, 4-butoxyphenol] | – | 525 | 0.692 | –
34 | COc1ccc(O)cc1 [4-OCH3, 4-methoxyphenol] | – | 10500 | 12.3 | Induction of deletion, fold increase over untreated control, Obsd (S. cerevisiae [1]): 2.01 fold
35 | Oc1ccc(O)cc1 [4-OH, hydroquinone] | – | 27500 | 40.7 | Induction of deletion, fold increase over untreated control, Obsd (S. cerevisiae [1]): 2.25 fold
36 | CC(=O)Nc1ccc(O)cc1 [4-acetamidophenol] | – | – | – | increase in deletion frequencies in words (yeast): did not show a significant increase
37 | CCCCCCCCCCCCc1ccc(O)cc1 [4-dodecylphenol] | – | – | – | inhibition at 350 µM (S. cerevisiae [2]; Saccharomyces cerevisiae, read-out: growth inhibition): 40%; solubility in words (Water solubility): poor water solubility
38 | COc1ccc(O)c(C(C)(C)C)c1 [BHA, butylated hydroxy anisole] | – | – | – | deletion formation / genotoxicity in words (S. cerevisiae [1]): significant increase in deletion events; growth phenotype of DNA repair null mutant strains [3]: growth defects in most of the DNA repair null mutant strains tested; also recorded: some level of growth defect; growth phenotype of Δrad4 strain [3]: more resistant; growth phenotype of Δrad14 strain [3]: increased sensitivity; log 1/IC80 Obsd (S. cerevisiae [2]; 80% inhibition of yeast growth, 17 h, 30 °C, OD 655 nm): 3.37; log 1/IC50 Obsd (S. cerevisiae [2]; inhibition of yeast growth, 17 h, 30 °C, OD 655 nm): 3.72
39 | Cc1cc(C(C)(C)C)c(O)c(C(C)(C)C)c1 [BHT, 2,6-di-tert-butyl-4-methyl-phenol] | – | 132 | 0.251 | growth phenotype of DNA repair null mutant strains [3]: unresponsive; also recorded: negligible; also recorded: did not cause clear growth defects
40 | CC(C)(c1ccc(O)cc1)c1ccc(O)cc1 [bisphenol-A, bisphenol A] | – | 676 | 0.813 | –
